Laboratory results as given in US20210349082A1, “ANALYSIS INSTRUMENT” (First Light Diagnostics, Inc., priority 2018, published 2021).
Where two headings read alike, the source gives them in different places.

What was measured:
[1] = tested on: K. pneumonaie strain in clinical urine sample BIUR0084; experiment: Automated MultiPath AST cartridge on clinical urine sample; type: cell-based; details: clinical urine sample BIUR0084 (K. pneumoniae); 2 antibiotic concentrations; 4 h growth; fold growth value of 2
P. aeruginosa = details: cited from earlier work

Molecule	sensitive/resistant call by MulitPath [1]	previously determined antibiotic resistance (P. aeruginosa; P. aeruginosa ATCC 27853)	previously determined antibiotic resistance (P. aeruginosa; P. aeruginosa CDC0105)	previously determined antibiotic resistance (P. aeruginosa; P. aeruginosa CDC0111)	previously determined antibiotic resistance (P. aeruginosa; P. aeruginosa CDC0232)	previously determined antibiotic resistance (P. aeruginosa; P. aeruginosa CDC0242)	previously determined antibiotic resistance (P. aeruginosa; P. aeruginosa CDC0247)	previously determined antibiotic resistance (P. aeruginosa; P. aeruginosa CDC0251)	previously determined antibiotic resistance (P. aeruginosa; P. aeruginosa CDC0253)	previously determined antibiotic resistance (P. aeruginosa; P. aeruginosa CDC0259)	previously determined antibiotic resistance (P. aeruginosa; P. aeruginosa CDC0261)	previously determined antibiotic resistance (P. aeruginosa; P. aeruginosa CDC0262)
Cc1nnc(SCC2=C(C(=O)O)N3C(=O)[C@@H](NC(=O)Cn4cnnn4)[C@H]3SC2)s1 [Cefazolin]	resistant	–	–	–	–	–	–	–	–	–	–	–
Trimethoprim/Sulfamethoxazole	resistant	Intrinsically	Intrinsically	Intrinsically	Intrinsically	Intrinsically	Intrinsically	Intrinsically	Intrinsically	Intrinsically	Intrinsically	Intrinsically
